{"source": "patent US20040266749A1", "about": "“Methods for cystic fibrosis disease assessment and methods for treating anaerobic P. aeruginosa biofilms in cystic fibrosis disease” (priority 2002, published 2004)", "tested_on": "P. aeruginosa rhlR mutant anaerobic biofilm", "test": "Anaerobic biofilm protection of rhlR mutant bacteria by carboxy-PTIO (confocal LIVE/DEAD viability)", "type": "cell-based, Pseudomonas aeruginosa", "details": "5 mM carboxy-PTIO", "procedure": "(b) Confocal examination of biofilms. For biofilm architecture examination, circular coverslips are glued to the bottom of 35×10 mm polystyrene tissue culture dishes with small holes in the base (Falcon). The plates are sterilized overnight by UV irradiation. Three ml of aerobic L-broth, aerobic LBN or anaerobic LBN is inoculated with ˜10^7 CFU of overnight L-broth grown culture. After 24 hr at 37° C., biofilms are washed with saline and stained with 0.5 ml of a LIVE/DEAD BacLight bacterial viability stain (Molecular Probes, Inc., Eugene, Oreg.). Images are acquired on a Zeiss LSM 510 laser scanning confocal unit attached to an Axiovert microscope using a 63×1.4 NA oil immersion objective. For two color images, samples are scanned sequentially at 488 nm and 546 nm. Syto 9 (green fluorescence) is detected through a 505-530 nm bandpass filter and propidium iodine (red fluorescence) is detected through a 560 nm longpass filter and presented in two channels of a 512×512 pixel, 8-bit image.\n(a) Anaerobic biofilm protection by 2-(4-Carboxyphenyl)-4,4,5,5-tetramethylimidazoline-1-oxyl-3-oxide (carboxy-PTIO). Biofilms of rhlR mutant bacteria are grown anaerobically in the presence vs. absence of 5 mM carboxy-PTIO (Molecular Probes, Eugene, Oreg.), an NO scavenger. […]"}
{"smiles": "CC1(C)N([O])C(c2ccc(C(=O)O)cc2)=[N+]([O-])C1(C)C", "note": "[carboxy-PTIO, 2-(4-Carboxyphenyl)-4,4,5,5-tetramethylimidazoline-1-oxyl-3-oxide]", "values": [{"measurement": "Biofilm zone in which protection is primarily observed (top of the biofilm)", "setting": "anaerobic rhlR mutant biofilm, sagittal sectioning, FIG. 3B line 2 vs. 1", "value": "10-15 μm"}, {"measurement": "Protection of anaerobic rhlR mutant biofilm bacteria from cell death (viability)", "setting": "rhlR mutant grown anaerobically as biofilm, FIG. 3A panels 2 vs. 1", "value": "protected the rhlR mutant"}]}
